Test results from US9273033B2, “Substituted pyridone derivatives as PDE10 inhibitors” (Merck Sharp & Dohme Corp., priority 2012, dated 2016).

Target: human PDE10A2 (Homo sapiens (Human), UniProt Q9Y233)
Test: PDE10 fluorescence polarization (IMAP FP) inhibition assay
Format: biochemical
Conditions: human PDE10A2, FAM-labeled cAMP substrate, read-out: PDE10A Ki
Procedure: The activity of the compounds in accordance with the present invention as PDE10 inhibitors may be readily determined without undue experimentation using a fluorescence polarization (FP) methodology that is well known in the art (Huang, W., et al., J. Biomol Screen, 2002, 7: 215).
In a typical experiment the PDE10 inhibitory activity of the compounds of the present invention was determined in accordance with the following experimental method. PDE10A2 was amplified from human fetal brain cDNA (Clontech, Mountain View, Calif.) using a forward primer corresponding to nucleotides 56-77 of human PDE10A2 (Accession No. AF127480, Genbank Identifier 4894716), containing a Kozak consensus sequence, and a reverse primer corresponding to nucleotides 2406-2413 of human PDE10A2 (Accession No. AF127480, Genbank Identifier 4894716). Amplification with Easy-A polymerase (Stratagene, La Jolla, Calif.) was 95° C. for 2 minutes followed by thirty three cycles of 95° C. for 40 seconds, 55° C. for 30 seconds, and 72° C. for 2 minutes 48 seconds. Final extension was 72° C. for 7 minutes. The PCR product was TA cloned into pcDNA3.2-TOPO (Invitrogen, Carlsbad, Calif.) according to standard protocol. AD293 cells with 70-80% confluency were transiently transfected with human PDE10A2/pcDNA3.2-TOPO using Lipofectamine 2000 according to manufacturer specifications (Invitrogen, Carlsbad, Calif.). Cells were harvested 48 hours post-transfection and lysed by sonication (setting 3, 10×5 sec pulses) in a buffer containing 20 mM HEPES, 1 mM EDTA and protease inhibitor cocktail (Roche). Lysate was collected by centrifugation at 75,000×g for 20 minutes. Supernatant containing the cytoplasmic fraction was used for evaluation of PDE10A2 activity. The fluorescence polarization assay for cyclic nucleotide phosphodiesterases was performed using an IMAP® FP kit supplied by Molecular Devices, Sunnyvale, Calif. (product # R8139). IMAPU technology has been applied previously to phosphodiesterase assays (Huang, W., et al., J. Biomol Screen, 2002, 7: 215). Assays were performed at room temperature in 384-well microtiter plates with an incubation volume of 20.2 μL. Solutions of test compounds were prepared in DMSO and serially diluted with DMSO to yield 8 μL of each of 10 solutions differing by 3-fold in concentration, at 32 serial dilutions per plate. 100% inhibition is determined using a known PDE10 inhibitor, which can be any compound that is present at 5,000 times its Ki value in the assay described as follows, such as papaverine (see Siuciak, et al. Neuropharmacology (2006) 51:386-396; Becker, et al. Behav Brain Res (2008) 186(2):155-60; Threlfell, et al., J Pharmacol Exp Ther (2009) 328(3):785-795), 2-{4-[pyridin-4-yl-1-(2,2,2-trifluoroethyl)-1H-pyrazol-3-yl]phenoxymethyl}quinoline succinic acid or 2-[4-(1-methyl-4-pyridin-4-yl-1H-pyrazol-3-yl)-phenoxymethyl]quinoline succinic acid (see Schmidt, et al. J Pharmacol Exp Ther (2008) 325:681-690; Threlfell, et al., J Pharmacol Exp Ther (2009) 328(3): 785-795). 0% of inhibition is determined by using DMSO (1% final concentrations).
A Labcyte Echo 555 (Labcyte, Sunnyvale, Calif.) is used to dispense 200 nL from each well of the titration plate to the 384 well assay plate. A solution of enzyme (1/1600 dilution from aliquots; sufficient to produce 20% substrate conversion) and a separate solution of FAM-labeled cAMP PDE from Molecular Devices (product # R7506), at a final concentration of 50 nM are made in the assay buffer (10 mM Tris HCl, pH 7.2, 10 mM MgCl2, 0.05% NaN3 0.01% Tween-20, and 1 mM DTT). The enzyme and the substrate are then added to the assay plates in two consecutive additions of 10 μL, and then shaken to mix. The reaction is allowed to proceed at room temperature for 30 minutes. A binding solution is then made from the kit components, comprised of 80% Solution A, 20% Solution B and binding reagent at a volume of 1/600 the total binding solution.

Chain of human PDE10A2 (Q9Y233 267-1055): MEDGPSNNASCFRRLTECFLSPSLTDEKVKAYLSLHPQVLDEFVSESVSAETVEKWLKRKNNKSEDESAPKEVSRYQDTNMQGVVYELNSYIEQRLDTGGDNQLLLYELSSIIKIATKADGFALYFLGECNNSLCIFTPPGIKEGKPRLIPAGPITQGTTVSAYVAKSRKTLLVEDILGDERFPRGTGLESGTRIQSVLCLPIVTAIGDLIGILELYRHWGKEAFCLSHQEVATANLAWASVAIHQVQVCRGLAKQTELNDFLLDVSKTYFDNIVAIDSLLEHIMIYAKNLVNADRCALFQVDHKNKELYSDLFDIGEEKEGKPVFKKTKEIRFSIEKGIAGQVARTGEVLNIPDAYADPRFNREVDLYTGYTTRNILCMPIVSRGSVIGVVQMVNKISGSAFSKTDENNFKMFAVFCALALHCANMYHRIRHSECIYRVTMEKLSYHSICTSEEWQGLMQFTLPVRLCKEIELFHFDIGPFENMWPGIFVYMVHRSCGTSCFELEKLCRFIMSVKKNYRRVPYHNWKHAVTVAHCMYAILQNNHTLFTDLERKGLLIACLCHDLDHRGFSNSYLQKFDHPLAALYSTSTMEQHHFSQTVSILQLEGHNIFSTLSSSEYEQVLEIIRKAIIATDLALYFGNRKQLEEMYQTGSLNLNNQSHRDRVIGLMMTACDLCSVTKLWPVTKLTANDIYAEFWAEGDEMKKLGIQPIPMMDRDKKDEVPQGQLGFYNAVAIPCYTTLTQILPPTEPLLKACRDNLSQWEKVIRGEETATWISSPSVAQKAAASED

| SMILES | Ki [nM] |
| --- | --- |
| COc1ccc([C@H]2C[C@@H]2COc2nc(C)ncc2-c2cc(=O)n(C)cc2[S+](C)[O-])nc1 (single isomer, unassigned) [Example 109, 4-(4-(((1S,2S)-2-(5-methoxypyridin-2-yl)cyclopropyl)methoxy)-2-methylpyrimidin-5-yl)-1-methyl-5-(methylsulfinyl)pyridin-2(1H)-one,R or S] | 63.8 |
| COc1ccc([C@H]2C[C@@H]2COc2nc(C)ncc2-c2cc(=O)n(C)cc2[S+](C)[O-])nc1 (single isomer, unassigned) [Example 110, 4-(4-(((1S,2S)-2-(5-methoxypyridin-2-yl)cyclopropyl)methoxy)-2-methylpyrimidin-5-yl)-1-methyl-5-(methylsulfinyl)pyridin-2(1H)-one, S or R] | 49 |
| COC(=O)Cn1cc(-c2cnc(C)nc2OC[C@H]2C[C@@H]2c2ccc(C)cn2)ccc1=O [Example 1, methyl 2-(5-(2-methyl-4-(((1S,2S)-2-(5-methylpyridin-2-yl)cyclopropyl)methoxy)pyrimidin-5-yl)-2-oxopyridin-1(2H)-yl)acetate] | 4.39 |
| COc1ccc([C@H]2C[C@@H]2COc2nc(C)ncc2-c2ccc(=O)n(C)c2)nc1 [Example 2, 5-(4-(((1S,2S)-2-(5-methoxypyridin-2-yl)cyclopropyl)methoxy)-2-methylpyrimidin-5-yl)-1-methylpyridin-2(1H)-one] | 1.01 |
| Cc1ccc([C@H]2C[C@@H]2COc2nc(C)ncc2-c2ccc(=O)n(C)c2C)nc1 [Example 3, 1,6-dimethyl-5-(2-methyl-4-(((1S,2S)-2-(5-methylpyridin-2-yl)cyclopropyl)methoxy)pyrimidin-5-yl)pyridin-2(1H)-one] | 0.217 |
| CCn1c(C)c(-c2cnc(C)nc2OC[C@H]2C[C@@H]2c2ccc(C)cn2)ccc1=O [Example 4, 1-ethyl-6-methyl-5-(2-methyl-4-(((1S,2S)-2-(5-methylpyridin-2-yl)cyclopropyl)methoxy)pyrimidin-5-yl)pyridin-2(1H)-one] | 1.95 |
| CCn1cc(-c2cnc(C)nc2OC[C@H]2C[C@@H]2c2ccc(C)cn2)ccc1=O [Example 5, 1-ethyl-5-(2-methyl-4-(((1S,2S)-2-(5-methylpyridin-2-yl)cyclopropyl)methoxy)pyrimidin-5-yl)pyridin-2(1H)-one] | 1.1 |
| COCCn1cc(-c2cnc(C)nc2OC[C@H]2C[C@@H]2c2ccc(C)cn2)ccc1=O [Example 6, 1-(2-methoxyethyl)-5-(2-methyl-4-(((1S,2S)-2-(5-methylpyridin-2-yl)cyclopropyl)methoxy)pyrimidin-5-yl)pyridin-2(1H)-one] | 1.38 |
| COCCn1c(C)c(-c2cnc(C)nc2OC[C@H]2C[C@@H]2c2ccc(C)cn2)ccc1=O [Example 7, 1-(2-methoxyethyl)-6-methyl-5-(2-methyl-4-(((1S,2S)-2-(5-methylpyridin-2-yl)cyclopropyl)methoxy)pyrimidin-5-yl)pyridin-2(1H)-one] | 3.06 |
| COn1cc(-c2cnc(C)nc2OC[C@H]2C[C@@H]2c2ccc(C)cn2)ccc1=O [Example 8, 1-methoxy-5-(2-methyl-4-(((1S,2S)-2-(5-methylpyridin-2-yl)cyclopropyl)methoxy)pyrimidin-5-yl)pyridin-2(1H)-one] | 2.33 |
| Cc1ncc(-c2ccc(=O)n(C(C)C)c2)c(OC[C@H]2C[C@@H]2c2ccc3ccccc3n2)n1 [Example 9, 1-isopropyl-5-(2-methyl-4-(((1S,2S)-2-(quinolin-2-yl)cyclopropyl)methoxy)pyrimidin-5-yl)pyridin-2(1H)-one] | 0.014 |
| Cc1ncc(-c2ccc(=O)n(-c3ccccc3)c2)c(OC[C@H]2C[C@@H]2c2ccc3ccccc3n2)n1 [Example 10, 5-(2-methyl-4-(((1S,2S)-2-(quinolin-2-yl)cyclopropyl)methoxy)pyrimidin-5-yl)-1-phenylpyridin-2(1H)-one] | 0.216 |
| Cc1ncc(-c2ccc(=O)n(C(F)F)c2)c(OC[C@H]2C[C@@H]2c2ccc3ccccc3n2)n1 [Example 11, 1-(difluoromethyl)-5-(2-methyl-4-(((1S,2S)-2-(quinolin-2-yl)cyclopropyl)methoxy)pyrimidin-5-yl)pyridin-2(1H)-one] | 0.048 |
| COn1cc(-c2cnc(C)nc2OC[C@H]2C[C@@H]2c2ccc3ccccc3n2)ccc1=O [Example 12, 1-methoxy-5-(2-methyl-4-(((1S,2S)-2-(quinolin-2-yl)cyclopropyl)methoxy)pyrimidin-5-yl)pyridin-2(1H)-one] | 0.053 |
| Cc1ccc([C@H]2C[C@@H]2COc2nc(C)ncc2-c2ccc(=O)n(C(C)C)c2)nc1 [Example 13, 1-isopropyl-5-(2-methyl-4-(((1S,2S)-2-(5-methylpyridin-2-yl)cyclopropyl)methoxy)pyrimidin-5-yl)pyridin-2(1H)-one] | 0.823 |
| Cc1ccc([C@H]2C[C@@H]2COc2nc(C)ncc2-c2ccc(=O)n(C(F)F)c2)nc1 [Example 14, 1-(difluoromethyl)-5-(2-methyl-4-(((1S,2S)-2-(5-methylpyridin-2-yl)cyclopropyl)methoxy)pyrimidin-5-yl)pyridin-2(1H)-one] | 1.1 |
| Cc1ccc([C@H]2C[C@@H]2COc2nc(C)ncc2-c2ccc(=O)n(-c3ccccc3)c2)nc1 [Example 15, 5-(2-methyl-4-(((1S,2S)-2-(5-methylpyridin-2-yl)cyclopropyl)methoxy)pyrimidin-5-yl)-1-phenylpyridin-2(1H)-one] | 4.86 |
| CCc1cc(-c2cnc(C)nc2OC[C@H]2C[C@@H]2c2ccc(OC)cn2)cn(C)c1=O [Example 16, 3-ethyl-5-(4-(((1S,2S)-2-(5-methoxypyridin-2-yl)cyclopropyl)methoxy)-2-methylpyrimidin-5-yl)-1-methylpyridin-2(1H)-one] | 0.185 |
| COc1ccc([C@H]2C[C@@H]2COc2nc(C)ncc2-c2cc(OC)c(=O)n(C)c2)nc1 [Example 17, 3-methoxy-5-(4-(((1S,2S)-2-(5-methoxypyridin-2-yl)cyclopropyl)methoxy)-2-methylpyrimidin-5-yl)-1-methylpyridin-2(1H)-one] | 0.151 |
| COc1ccc([C@H]2C[C@@H]2COc2nc(C)ncc2-c2cc(F)c(=O)n(C)c2)nc1 [Example 18, 3-fluoro-5-(4-(((1S,2S)-2-(5-methoxypyridin-2-yl)cyclopropyl)methoxy)-2-methylpyrimidin-5-yl)-1-methylpyridin-2(1H)-one] | 1.29 |
| COc1ccc([C@H]2C[C@@H]2COc2nc(C)ncc2-c2ccc(=O)n(-c3ccccc3)c2)nc1 [Example 19, 5-(4-(((1S,2S)-2-(5-methoxypyridin-2-yl)cyclopropyl)methoxy)-2-methylpyrimidin-5-yl)-1-phenylpyridin-2(1H)-one] | 4.68 |
| COc1ccc([C@H]2C[C@@H]2COc2nc(C)ncc2-c2ccc(=O)n(C(F)F)c2)nc1 [Example 20, 1-(difluoromethyl)-5-(4-(((1S,2S)-2-(5-methoxypyridin-2-yl)cyclopropyl)methoxy)-2-methylpyrimidin-5-yl)pyridin-2(1H)-one] | 1.21 |
| COc1ccc([C@H]2C[C@@H]2COc2nc(C)ncc2-c2ccc(=O)n(C(C)C)c2)nc1 [Example 21, 1-isopropyl-5-(4-(((1S,2S)-2-(5-methoxypyridin-2-yl)cyclopropyl)methoxy)-2-methylpyrimidin-5-yl)pyridin-2(1H)-one] | 0.827 |
